The subject of one series is HaCaT cells. In words: Cell viability CCK-8 assay, HaCaT. The class given is cell-based. Particulars: up to highest concentration, 72 h (legend; method says 24 h), CCK8. How it is done:
(§1) (A) B16F10 and HaCaT cells were treated with the indicated concentration of DualPep-Shine for 72 h, and relative cell viability was measured using Cell Counting Kit 8 (CCK8) assay. Doxorubicin was used for positive control. (B) Phorbol 12-myristate 13-acetate (PMA)-differentiated THP-1 cells were treated with different concentrations of DualPep-Shine for 24 h. TNF-α from supernatants was measured using the enzyme-linked immunosorbent assay (ELISA). (C) DualPep-Shine was incubated with indicated temperature conditions for 45 days. B16F10 cells were treated with different concentrations for 72 h, and melanin contents were measured at OD 405 nm. The results are presented as mean ± SD, and statistical significance was analyzed with Student’s t-test (NS: not significant, *** p < 0.001).
(§2) Cell viability was measured using a CCK-8 assay (Dojindo, Tokyo, Japan). HaCaT and B16F10 cells were cultured in a 96-well plate at a 6 × 10^3 cells/well and incubated in a complete medium at 37 °C with 5% CO2 overnight. Each cell type was treated with different concentrations of peptides for 24 h. After removing the medium, CCK-8 solution was added in a dark room at 37 °C. Absorbance was measured at 450 nm using a microplate reader.
Background: Formazan colour is commonly taken as a measure of viable cells.

Series [1] can be described thus: Storage stability of peptide, read out as anti-melanin activity in B16F10 cells. It is filed as physicochemical. The settings on record: peptide stored at −20 °C, 25 °C and 37 °C for 45 days; then B16F10 72 h, melanin at OD 405 nm. How it is done: as §1
B16F10 cells (1 × 10^5) were seeded in a 24-well plate and incubated for 16 h. The cells were treated with α-MSH (Sigma-Aldrich, Darmstadt, Germany) and peptides for 72 h. The cells were incubated at 37 °C in 5% CO2. […] Then, melanin levels were determined by measuring the absorbance at 405 nm using a microplate reader. […] B16F10 cells were then treated with different concentrations of peptides, and melanin contents were measured to check the stability of DualPep-Shine.

Series [2] concerns B16F10 cells. In words: Localization of penetrated peptide by confocal microscopy. Particulars: B16F10, FITC-conjugated peptide, 2 h, Hoechst 33342 nucleus staining. The class given is cell-based. How it is done: Figure 3 DualPep-Shine regulates the expression of melanogenic genes and inhibits the promoter activity of MITF-M. (A) B16F10 cells were treated with various concentrations of DualPep-Shine for 72 h. Melanin contents were determined at OD 405 nm. (B) DualPep-Shine was treated with α-MSH for 24 h, and whole-cell lysates were subjected to Western blotting. Indicated antibodies were used to analyze melanogenic proteins. (C) mRNA levels of MITF, Tyr, TRP1, and TRP2 were analyzed using quantitative polymerase chain reaction (qPCR) after treatment with DualPep-Shine for 12 h. The gene expression was normalized with β-actin. (D) FITC-conjugated DualPep-Shine was treated for 2 h on B16F10 cells, and its localization was visualized using confocal microscopy. Hoechst 33342 was used for nucleus staining. Bar = 10 μm. […] The results are presented as mean ± SD, and statistical significance was analyzed with Student’s t-test (** p < 0.01, *** p < 0.001).
B16F10 cells were seeded in a 24-well plate and treated with 2.5 μM of FITC conjugated TAT, RMNE1, or DualPep-Shine for 2 h. […] Penetrated peptides were evaluated via flow cytometry by measuring FITC levels. […] The cells were washed again with PBS five times, mounted on a slide glass using gel/mount solution (Biomeda, Foster City, CA, USA), and the penetrated peptides were visualized using a fluorescence microscope. […]

In a further series the test system is THP-1 cells. The experiment in a line: TNF-α secretion ELISA in PMA-differentiated THP-1 cells (immunogenicity). The class given is cell-based. Particulars: PMA-differentiated THP-1, up to 100 μM, 24 h. How it is done: as §1
For orientation: An ELISA detects its analyte on a solid surface through an enzyme-linked reagent.

In series [3] the test system is B16F10 cells. In words: Cell viability CCK-8 assay, B16F10. The class given is cell-based. Particulars: B16F10, up to highest concentration, 72 h (legend; method says 24 h), CCK8. How it is done: as §1, §2

We go through 1 compound from publication PMC10094136, “Neurog1-Derived Peptides RMNE1 and DualPep-Shine Penetrate the Skin and Inhibit Melanin Synthesis by Regulating MITF Transcription” (International Journal of Molecular Sciences, 2023).

Where a SMILES comes first, the peptide text is derived from it.

In the case of `C[C@@H](O)[C@H](NC(=O)[C@H](CCCNC(=N)N)NC(=O)CNC(=O)[C@H](CCCNC(=N)N)NC(=O)[C@H](CCCNC(=N)N)NC(=O)[C@H](CCCNC(=N)N)NC(=O)[C@H](CCCNC(=N)N)NC(=O)[C@H](CCCNC(=N)N)NC(=O)[C@H](CCC(=O)O)NC(=O)[C@H](CCC(N)=O)NC(=O)[C@H](CCC(=O)O)NC(=O)[C@@H](N)CC(=O)O)C(=O)N[C@@H](CCCNC(=N)N)C(=O)O` [DualPep-Shine] (H-DEQERRRRRGRTR-OH), the Cell viability entry with HaCaT cells and in the series with B16F10 cells [3] was “not affected” throughout. The “Anti-pigmentation activity after pre-incubation (stability)” value in series [1] is reported as “maintained”. Also, the Intracellular localization entry with B16F10 cells [2] is “mainly localized in the nucleus”. The “TNF-α secretion (immunogenicity)” value in the series with THP-1 cells was “did not induce tumor necrosis factor α (TNF-α) secretion”.
